Data from the NIST ThermoML archive (doi:10.1016/j.jct.2005.03.020).

How the values were obtained:
[1] = xn = mol fraction of the nth substance listed; settings: 298.15 K, 101.33 kPa, Liquid
[2] = excess molar enthalpy (molar enthalpy of mixing); xn = mol fraction of the nth substance listed; settings: 298.15 K, 101.33 kPa, Liquid

ClCCCCCCl [1,5-dichloropentane] + CCCC(=O)OCC
Settings | excess molar enthalpy [kcal/mol] | mass density [kg/m3]
[1], x2 = 0.0569 | – | 1082.35
[1], x2 = 0.1136 | – | 1069.48
[1], x2 = 0.171 | – | 1056.53
[1], x2 = 0.2286 | – | 1043.61
[1], x2 = 0.2917 | – | 1029.5
[1], x2 = 0.3489 | – | 1016.71
[1], x2 = 0.4084 | – | 1003.45
[1], x2 = 0.4653 | – | 990.76
[1], x2 = 0.5243 | – | 977.72
[1], x2 = 0.5825 | – | 964.82
[1], x2 = 0.6411 | – | 951.9
[1], x2 = 0.7595 | – | 925.89
[1], x2 = 0.8188 | – | 912.92
[1], x2 = 0.8799 | – | 899.6
[1], x2 = 0.9403 | – | 886.46
[2], x2 = 0.0571 | -0.00196 | –
[2], x2 = 0.1213 | -0.00643 | –
[2], x2 = 0.1884 | -0.012 | –
[2], x2 = 0.2532 | -0.0176 | –
[2], x2 = 0.3155 | -0.0235 | –
[2], x2 = 0.3746 | -0.0297 | –
[2], x2 = 0.4289 | -0.0361 | –
[2], x2 = 0.478 | -0.0416 | –
[2], x2 = 0.5235 | -0.0442 | –
[2], x2 = 0.5576 | -0.0456 | –
[2], x2 = 0.5639 | -0.0459 | –
[2], x2 = 0.6129 | -0.0461 | –
[2], x2 = 0.6726 | -0.0449 | –
[2], x2 = 0.736 | -0.0402 | –
[2], x2 = 0.8047 | -0.0329 | –
[2], x2 = 0.8728 | -0.0236 | –
[2], x2 = 0.9406 | -0.0114 | –

ClCCCCCCl [1,5-dichloropentane] + CCCCC(=O)OCC
Settings | excess molar enthalpy [kcal/mol] | mass density [kg/m3]
[1], x2 = 0.1036 | – | 1068.61
[1], x2 = 0.1561 | – | 1055.46
[1], x2 = 0.2082 | – | 1042.59
[1], x2 = 0.2623 | – | 1029.48
[1], x2 = 0.3179 | – | 1016.24
[1], x2 = 0.3785 | – | 1002.01
[1], x2 = 0.4369 | – | 988.54
[1], x2 = 0.4943 | – | 975.55
[1], x2 = 0.5534 | – | 962.34
[1], x2 = 0.6141 | – | 949.06
[1], x2 = 0.6755 | – | 935.8
[1], x2 = 0.7367 | – | 922.8
[1], x2 = 0.8008 | – | 909.43
[1], x2 = 0.8658 | – | 896.13
[1], x2 = 0.9318 | – | 882.79
[2], x2 = 0.0481 | -0.00244 | –
[2], x2 = 0.1066 | -0.00762 | –
[2], x2 = 0.1663 | -0.0128 | –
[2], x2 = 0.228 | -0.0206 | –
[2], x2 = 0.2876 | -0.0279 | –
[2], x2 = 0.3438 | -0.0357 | –
[2], x2 = 0.3973 | -0.0434 | –
[2], x2 = 0.416 | -0.0465 | –
[2], x2 = 0.4433 | -0.0493 | –
[2], x2 = 0.4786 | -0.0512 | –
[2], x2 = 0.5288 | -0.0522 | –
[2], x2 = 0.5848 | -0.0517 | –
[2], x2 = 0.6478 | -0.05 | –
[2], x2 = 0.7165 | -0.0433 | –
[2], x2 = 0.7867 | -0.0365 | –
[2], x2 = 0.8597 | -0.0264 | –
[2], x2 = 0.9325 | -0.0137 | –

ClCCCCCCl [1,5-dichloropentane] + CCOC(=O)CC
[1]
Settings | mass density [kg/m3]
x2 = 0.0734 | 1081.12
x2 = 0.129 | 1070.38
x2 = 0.1956 | 1057.38
x2 = 0.2575 | 1045.16
x2 = 0.3202 | 1032.63
x2 = 0.4361 | 1008.96
x2 = 0.5001 | 995.63
x2 = 0.5582 | 983.34
x2 = 0.6155 | 971.03
x2 = 0.6735 | 958.42
x2 = 0.7283 | 946.34
x2 = 0.785 | 933.66
x2 = 0.8394 | 921.33
x2 = 0.8926 | 909.15
x2 = 0.9451 | 896.94

ClCCCCCCl [1,5-dichloropentane] + CCOC(C)=O
[1]
Settings | mass density [kg/m3]
x2 = 0.078 | 1082.84
x2 = 0.1498 | 1071.08
x2 = 0.2187 | 1059.41
x2 = 0.2869 | 1047.48
x2 = 0.3508 | 1035.92
x2 = 0.4146 | 1024.01
x2 = 0.5355 | 1000.44
x2 = 0.5943 | 988.46
x2 = 0.6527 | 976.18
x2 = 0.7039 | 965.12
x2 = 0.7557 | 953.57
x2 = 0.8066 | 941.94
x2 = 0.8572 | 930.03
x2 = 0.9059 | 918.17
x2 = 0.9527 | 906.46

ClCCCCCCl [1,5-dichloropentane] + CCOC=O
[1]
Settings | mass density [kg/m3]
x2 = 0.0925 | 1084.33
x2 = 0.173 | 1074.06
x2 = 0.2529 | 1063.2
x2 = 0.3276 | 1052.35
x2 = 0.3957 | 1041.79
x2 = 0.4618 | 1031.02
x2 = 0.5249 | 1020.19
x2 = 0.5835 | 1009.55
x2 = 0.6395 | 998.87
x2 = 0.6917 | 988.42
x2 = 0.7415 | 977.92
x2 = 0.7896 | 967.31
x2 = 0.836 | 956.62
x2 = 0.8791 | 946.24
x2 = 0.9211 | 935.6
x2 = 0.9595 | 925.4

ClCCCCCCCl [1,6-dichlorohexane] + CCCC(=O)OCC
Settings | excess molar enthalpy [kcal/mol] | mass density [kg/m3]
[1], x2 = 0.0651 | – | 1052.45
[1], x2 = 0.1277 | – | 1041.56
[1], x2 = 0.1889 | – | 1030.69
[1], x2 = 0.2509 | – | 1019.59
[1], x2 = 0.3119 | – | 1008.53
[1], x2 = 0.3711 | – | 997.66
[1], x2 = 0.4384 | – | 985.13
[1], x2 = 0.4971 | – | 974.07
[1], x2 = 0.5548 | – | 963.05
[1], x2 = 0.6131 | – | 951.77
[1], x2 = 0.67 | – | 940.63
[1], x2 = 0.7263 | – | 929.48
[1], x2 = 0.7824 | – | 918.28
[1], x2 = 0.8369 | – | 907.25
[1], x2 = 0.8922 | – | 895.96
[1], x2 = 0.9457 | – | 884.85
[2], x2 = 0.051 | -0.000789 | –
[2], x2 = 0.1085 | -0.0022 | –
[2], x2 = 0.1746 | -0.00564 | –
[2], x2 = 0.2423 | -0.0101 | –
[2], x2 = 0.3076 | -0.0158 | –
[2], x2 = 0.3688 | -0.0202 | –
[2], x2 = 0.4325 | -0.0254 | –
[2], x2 = 0.4782 | -0.0283 | –
[2], x2 = 0.525 | -0.0321 | –
[2], x2 = 0.5779 | -0.0341 | –
[2], x2 = 0.6383 | -0.0346 | –
[2], x2 = 0.7034 | -0.0313 | –
[2], x2 = 0.7744 | -0.0254 | –
[2], x2 = 0.8524 | -0.0179 | –
[2], x2 = 0.9323 | -0.00949 | –

ClCCCCCCCl [1,6-dichlorohexane] + CCCCC(=O)OCC
Settings | excess molar enthalpy [kcal/mol] | mass density [kg/m3]
[1], x2 = 0.0538 | – | 1053.1
[1], x2 = 0.1126 | – | 1041.51
[1], x2 = 0.1693 | – | 1030.36
[1], x2 = 0.2307 | – | 1018.34
[1], x2 = 0.287 | – | 1007.32
[1], x2 = 0.3464 | – | 995.69
[1], x2 = 0.5231 | – | 961.26
[1], x2 = 0.5825 | – | 949.74
[1], x2 = 0.701 | – | 926.81
[1], x2 = 0.7586 | – | 915.69
[1], x2 = 0.8777 | – | 892.8
[1], x2 = 0.94 | – | 880.88
[2], x2 = 0.0607 | -0.00433 | –
[2], x2 = 0.127 | -0.00896 | –
[2], x2 = 0.1968 | -0.0146 | –
[2], x2 = 0.264 | -0.0205 | –
[2], x2 = 0.3289 | -0.0265 | –
[2], x2 = 0.389 | -0.0331 | –
[2], x2 = 0.4445 | -0.0397 | –
[2], x2 = 0.4953 | -0.0439 | –
[2], x2 = 0.5409 | -0.0448 | –
[2], x2 = 0.5672 | -0.045 | –
[2], x2 = 0.5813 | -0.0449 | –
[2], x2 = 0.6117 | -0.0433 | –
[2], x2 = 0.6723 | -0.0395 | –
[2], x2 = 0.7364 | -0.0342 | –
[2], x2 = 0.8027 | -0.0278 | –
[2], x2 = 0.8717 | -0.0198 | –
[2], x2 = 0.9373 | -0.0107 | –

ClCCCCCCCl [1,6-dichlorohexane] + CCOC(=O)CC
[1]
Settings | mass density [kg/m3]
x2 = 0.0733 | 1053.16
x2 = 0.144 | 1042.66
x2 = 0.2117 | 1032.32
x2 = 0.2775 | 1021.98
x2 = 0.3418 | 1011.56
x2 = 0.4104 | 1000.12
x2 = 0.5264 | 979
x2 = 0.5884 | 968.62
x2 = 0.7491 | 937.72
x2 = 0.8052 | 926.3
x2 = 0.8547 | 915.96
x2 = 0.905 | 905.21
x2 = 0.9513 | 894.99

ClCCCCCCCl [1,6-dichlorohexane] + CCOC=O
[1]
Settings | mass density [kg/m3]
x2 = 0.1021 | 1054.55
x2 = 0.1921 | 1045.86
x2 = 0.2781 | 1036.7
x2 = 0.357 | 1027.68
x2 = 0.4266 | 1019.06
x2 = 0.4923 | 1010.37
x2 = 0.5555 | 1001.35
x2 = 0.6677 | 983.71
x2 = 0.7169 | 975.18
x2 = 0.7649 | 966.4
x2 = 0.8091 | 957.78
x2 = 0.8515 | 949.08
x2 = 0.8915 | 940.41
x2 = 0.929 | 931.82
x2 = 0.9647 | 923.23

CCOC=O [ethyl methanoate] + ClCCCl
[1]
Settings | mass density [kg/m3]
x1 = 0.0604 | 1224.56
x1 = 0.1183 | 1204.73
x1 = 0.175 | 1185.45
x1 = 0.2911 | 1146.17
x1 = 0.3483 | 1126.98
x1 = 0.4068 | 1107.45
x1 = 0.4649 | 1088.21
x1 = 0.5246 | 1068.52
x1 = 0.5831 | 1049.26
x1 = 0.6432 | 1029.61
x1 = 0.7012 | 1010.71
x1 = 0.758 | 992.23
x1 = 0.817 | 973.15
x1 = 0.8778 | 953.5
x1 = 0.9362 | 934.65

CCOC(=O)CC [ethyl propanoate] + ClCCCl
[1]
Settings | mass density [kg/m3]
x1 = 0.0458 | 1221.49
x1 = 0.0867 | 1201.01
x1 = 0.131 | 1179.33
x1 = 0.1761 | 1158.4
x1 = 0.225 | 1136.63
x1 = 0.2733 | 1116.14
x1 = 0.3272 | 1094.1
x1 = 0.3811 | 1073.16
x1 = 0.4371 | 1052.35
x1 = 0.4963 | 1031.27
x1 = 0.5583 | 1010.27
x1 = 0.6235 | 989.23
x1 = 0.69 | 968.72
x1 = 0.7598 | 948.13
x1 = 0.835 | 927.04
x1 = 0.9131 | 906.11
